Measurements taken from US20220378707A1, “1-(((2S,3S,4S)-3-ETHYL-4-FLUORO-5-OXOPYRROLIDIN-2-YL)METHOXY)-7-METHOXYISOQUINOLINE-6-CARBOXAMIDE COMBINATIONS AND ORAL DOSAGE FORMS” (Pfizer Inc., priority 2019, published 2022).

Tests used:
[1] = 13 week toxicology study in rat: exposure interaction of tofacitinib and PF-06650833; assay type: in vivo
[2] = system: keratinocytes and HDFn+(IL-1β, TNFα and IFNγ); assay: BioMAP KF3CT system; assay type: cell-based, human; conditions: Th1 cutaneous inflammation; tofacitinib 37-1000 nM
Text: The BioMAP systems consist of human primary cell-based systems designed to model different aspects of the human body in an in vitro format. The 12 systems tested characterized the test compounds across a broad set of systems modeling various human disease states. BioMAP systems were constructed with one or more primary cell types from healthy human donors, with stimuli (such as cytokines or growth factors) added to capture relevant signaling networks that naturally occur in human tissue or pathological conditions. Vascular biology was modeled in both a Th1 (3C system) and a Th2 (4H system) inflammatory environment, as well as in a Th1 inflammatory state specific to arterial smooth muscle cells (CASM3C system). […]
Systems were derived from either single cell types or co-culture systems. […] Test agents were prepared in DMSO (final concentration <0.1%) and were added 1 hour before stimulation, and remained in culture for 24 hours or as otherwise indicated (48-hrs, MyoF system; 72-hrs, BT system (soluble readouts); 168-hrs, BT system (secreted IgG)). […] Soluble factors from supernatants were quantified using either HTRF® detection, bead-based multiplex immunoassay or capture ELISA. Overt adverse effects of test agents on cell proliferation and viability (cytotoxicity) were detected by sulforhodamine B (SRB) staining, for adherent cells, and alamarBlue® reduction for cells in suspension.

SMILES: CC[C@@H]1[C@H](F)C(=O)N[C@@H]1COc1nccc2cc(C(N)=O)c(OC)cc12 [PF-06650833, 1-(((2S,3S,4S)-3-Ethyl-4-fluoro-5-oxopyrrolidin-2-yl)methoxy)-7-methoxyisoquinoline-6-carboxamide]
- Effects of 10 mg/kg tofacitinib on PF-06650833 exposure ([1]; female rats, 50 mg/kg PF-06650833): no significant effects
- Effects of 10 mg/kg tofacitinib on PF-06650833 exposure ([1]; male rats, 100 mg/kg PF-06650833): no significant effects

SMILES: C[C@@H]1CCN(C(=O)CC#N)C[C@@H]1N(C)c1ncnc2[nH]ccc12 [tofacitinib, 3-((3R,4R)-4-Methyl-3-(methyl(7H-pyrrolo[2,3-d]pyrimidin-4-yl)amino)piperidin-1-yl)-3-oxopropanenitrile]
- Inhibition of biomarker readouts in the KF3CT system [2]: MCP-1
